Measurements: PubChem BioAssay AID330 (DTP/NCI, 2004)
Values joined by “and” are separate entries in the source; they are usually repeats but may differ in a detail not shown here. Equal values may be shown once. Toxic doses and inconclusive results are not listed.

Tested on: P388 leukemia ip, CD2F1 mice, survival T/C
Assay: NCI In Vivo Anticancer Drug Screen. Data for tumor model P388 Leukemia (intraperitoneal) in CD2F1 (CDF1) mice
Details: endpoint: median survival time, higher = longer survival
Summary of the method: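 Mice carrying the transplanted tumor received test compound or vehicle. Survival was recorded in each group, and the value is the treated-group measurement divided by that of the vehicle-treated control group.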

[1] = dose: 50.0 mg/kg/injection, schedule: Q01DX009 (ip), vehicle: saline
[2] = dose: 100.0 mg/kg/injection, schedule: Q01DX009 (ip), vehicle: saline
[3] = dose: 50.0 mg/kg/injection, schedule: Q01DX005 (ip), vehicle: saline with Tween-80
[4] = dose: 100.0 mg/kg/injection, schedule: Q01DX005 (ip), vehicle: saline with Tween-80
[5] = dose: 200.0 mg/kg/injection, schedule: Q01DX005 (ip), vehicle: saline with Tween-80
[6] = dose: 50.0 mg/kg/injection, schedule: Q01DX005 (ip), vehicle: Klucel (hydroxypropylcellulose) (HPC)
[7] = dose: 25.0 mg/kg/injection, schedule: Q01DX009 (ip), vehicle: saline with Tween-80
[8] = dose: 50.0 mg/kg/injection, schedule: Q01DX009 (ip), vehicle: saline with Tween-80
[9] = dose: 60.0 mg/kg/injection, schedule: Q01DX005 (ip), vehicle: saline with Tween-80
[10] = dose: 120.0 mg/kg/injection, schedule: Q01DX005 (ip), vehicle: saline with Tween-80
[11] = dose: 50.0 mg/kg/injection, schedule: Q04DX002 (ip), vehicle: saline with Tween-80
[12] = dose: 100.0 mg/kg/injection, schedule: Q01DX005 (ip), vehicle: Klucel (hydroxypropylcellulose) (HPC)
[13] = dose: 200.0 mg/kg/injection, schedule: Q01DX005 (ip), vehicle: Klucel (hydroxypropylcellulose) (HPC)
[14] = dose: 240.0 mg/kg/injection, schedule: Q01DX005 (ip), vehicle: saline with Tween-80

`CCOc1c(N=Nc2ccc(C)cc2)c(C)nn1C(=S)SC` was tested, and the T/C (dose: 60.0 mg/kg/injection, schedule: Q01DX005 (ip), vehicle: Klucel + Tween-80) was 100 % of control, the T/C (dose: 120.0 mg/kg/injection, schedule: Q01DX005 (ip), vehicle: Klucel + Tween-80) was 94 % of control and the T/C (dose: 240.0 mg/kg/injection, schedule: Q01DX005 (ip), vehicle: Klucel + Tween-80) was 100 % of control.
`Nc1nc[nH]c1-c1noc(=O)[nH]1` was tested, and the T/C (dose: 12.5 mg/kg/injection, schedule: Q01DX009 (ip), vehicle: saline) was 102 % of control, the T/C (dose: 25.0 mg/kg/injection, schedule: Q01DX009 (ip), vehicle: saline) was 108 % of control and the T/C [1] was 104 % of control and 112 % of control. The T/C [2] was 110 % of control.
For `Nc1c(S(=O)(=O)O)cc(Nc2cccc(S(=O)(=O)/C=C/S(=O)(=O)O)c2)c2c1C(=O)c1ccccc1C2=O`, the T/C (dose: 60.0 mg/kg/injection, schedule: Q01DX005 (ip), vehicle: saline) was 99 % of control, the T/C (dose: 120.0 mg/kg/injection, schedule: Q01DX005 (ip), vehicle: saline) was 104 % of control and the T/C (dose: 240.0 mg/kg/injection, schedule: Q01DX005 (ip), vehicle: saline) was 111 % of control.
In the case of `C1CCN(CCC[Si]23OCCN(CCO2)CCO3)CC1`, the T/C [3] is reported as 102 % of control, the T/C [4] is reported as 108 % of control and the T/C [5] is reported as 106 % of control.
In the case of `Cc1cccc(Nc2c(C(=O)O)cnc3cc4c(cc23)OCO4)c1C`, the T/C (dose: 30.0 mg/kg/injection, schedule: Q01DX005 (ip), vehicle: Klucel (hydroxypropylcellulose) (HPC)) is reported as 94 % of control, the T/C (dose: 60.0 mg/kg/injection, schedule: Q01DX005 (ip), vehicle: Klucel (hydroxypropylcellulose) (HPC)) is reported as 96 % of control and the T/C (dose: 120.0 mg/kg/injection, schedule: Q01DX005 (ip), vehicle: Klucel (hydroxypropylcellulose) (HPC)) is reported as 99 % of control and 103 % of control. The T/C (dose: 240.0 mg/kg/injection, schedule: Q01DX005 (ip), vehicle: Klucel (hydroxypropylcellulose) (HPC)) was 111 % of control.
For `CNCCC1CCCCC1`, the T/C [6] was 110 % of control.
For `CN1C(=O)/C(=C\c2ccccc2)N=C(c2ccccc2)c2cc(Cl)ccc21`, the T/C (dose: 25.0 mg/kg/injection, schedule: Q01DX005 (ip), vehicle: saline with Tween-80) was 110 % of control, the T/C [3] was 96 % of control and the T/C [4] was 91 % of control.
For `Cn1ccnc1C[Si](C)(C)C`, the T/C (dose: 45.5 mg/kg/injection, schedule: Q01DX005 (ip), vehicle: saline with Tween-80) was 99 % of control, the T/C (dose: 91.0 mg/kg/injection, schedule: Q01DX005 (ip), vehicle: saline with Tween-80) was 107 % of control and the T/C (dose: 182.0 mg/kg/injection, schedule: Q01DX005 (ip), vehicle: saline with Tween-80) was 108 % of control.
For `C(=C/c1nc2ccccc2nc1CCN1CCCCC1)/c1ccc2c(c1)OCO2`, the T/C [3] was 100 % of control, the T/C [4] was 102 % of control and the T/C [5] was 102 % of control.
In the case of `CN1CCN=C1c1ccc(NC(=O)c2ccc(C(=O)Nc3ccc(C4=NCCN4C)cc3)c(Cl)c2)cc1`, the T/C (dose: 1.56 mg/kg/injection, schedule: Q01DX005 (ip), vehicle: Klucel (hydroxypropylcellulose) (HPC)) is reported as 104 % of control, the T/C (dose: 3.12 mg/kg/injection, schedule: Q01DX005 (ip), vehicle: Klucel (hydroxypropylcellulose) (HPC)) is reported as 109 % of control and the T/C (dose: 6.25 mg/kg/injection, schedule: Q01DX005 (ip), vehicle: Klucel (hydroxypropylcellulose) (HPC)) is reported as 118 % of control and 123 % of control.
`CCCCCCCCCCCCCCCC[N+](C)(C)CCNC(C)=O` was tested, and the T/C (dose: 12.5 mg/kg/injection, schedule: Q01DX009 (ip), vehicle: saline with Tween-80) was 100 % of control, the T/C [7] was 102 % of control and the T/C [8] was 90 % of control.
With `CC/C([O-])=C1/C(=O)N(c2ccccc2)N=C1C.CC/C([O-])=C1/C(=O)N(c2ccccc2)N=C1C.[Cu+2]` the T/C (dose: 15.0 mg/kg/injection, schedule: Q01DX005 (ip), vehicle: saline with Tween-80) was 100 % of control, the T/C (dose: 30.0 mg/kg/injection, schedule: Q01DX005 (ip), vehicle: saline with Tween-80) was 107 % of control and the T/C [9] was 91 % of control and 94 % of control. For the same compound, the T/C [10] was 100 % of control.
In the case of `CC1=CN2C(c3ccccc3)=NON(c3ccc(C)cn3)C2C=C1` (stereo unspecified), the T/C [5] is reported as 92 % of control.
In the case of `C/C(=N\N/C(N)=N/S(=O)(=O)c1ccc(C)cc1)c1ccc(C)cc1`, the T/C [11] is reported as 100 % of control, the T/C (dose: 100.0 mg/kg/injection, schedule: Q04DX002 (ip), vehicle: saline with Tween-80) is reported as 97 % of control and the T/C (dose: 200.0 mg/kg/injection, schedule: Q04DX002 (ip), vehicle: saline with Tween-80) is reported as 98 % of control.
`CCOC(=O)NC(CC(C)C)C(=O)NC(CC(C)C)C(=O)OC(C)(C)C` (stereo unspecified) was tested, and the T/C [3] was 98 % of control, the T/C [4] was 99 % of control and the T/C [5] was 100 % of control.
In the case of `CC[As](CC)SC1CC2C3CCC4=CC(=O)C=CC4(C)C3C(=O)CC2(C)C1C(=O)CC(C)=O` (stereo unspecified), the T/C [6] is reported as 101 % of control, the T/C [12] is reported as 103 % of control and the T/C [13] is reported as 94 % of control.
`COC(=O)NC(=S)Nc1nnc(C)s1` was tested, and the T/C (dose: 25.0 mg/kg/injection, schedule: Q04DX003 (ip), vehicle: saline with Tween-80) was 103 % of control, the T/C (dose: 50.0 mg/kg/injection, schedule: Q04DX003 (ip), vehicle: saline with Tween-80) was 256 % of control and the T/C (dose: 100.0 mg/kg/injection, schedule: Q04DX003 (ip), vehicle: saline with Tween-80) was 105 % of control.
`NCC(OCCCC(=O)O)C(Cl)(Cl)Cl` (stereo unspecified) was tested, and the T/C [1] was 93 % of control, the T/C [2] was 101 % of control and the T/C (dose: 200.0 mg/kg/injection, schedule: Q01DX009 (ip), vehicle: saline) was 100 % of control.
For `Cc1ccc2nc3c4ccccc4c4ccccc4c3nc2c1C`, the T/C [3] was 94 % of control, the T/C [4] was 86 % of control and the T/C [5] was 89 % of control.
For `CC1=CC(=O)NC1O` (stereo unspecified), the T/C (dose: 2.5 mg/kg/injection, schedule: Q01DX010 (ip), vehicle: saline) was 104 % of control, the T/C (dose: 5.0 mg/kg/injection, schedule: Q01DX010 (ip), vehicle: saline) was 95 % of control and the T/C (dose: 10.0 mg/kg/injection, schedule: Q01DX010 (ip), vehicle: saline) was 90 % of control. The T/C (dose: 15.0 mg/kg/injection, schedule: Q01DX010 (ip), vehicle: saline) was 95 % of control, the T/C (dose: 23.0 mg/kg/injection, schedule: Q01DX009 (ip), vehicle: saline) was 95 % of control and the T/C (dose: 35.0 mg/kg/injection, schedule: Q01DX009 (ip), vehicle: saline) was 86 % of control. For the same compound, the T/C [1] was 104 % of control.
With `Nc1ccc(-c2ccc(C(=O)O)cc2)cc1` the T/C [9] was 104 % of control, the T/C [10] was 106 % of control and the T/C [14] was 109 % of control.
`CCCCN=C(N)N/N=C/c1c2ccccc2c(C)c2ccccc12` was tested, and the T/C (dose: 12.5 mg/kg/injection, schedule: Q04DX002 (ip), vehicle: saline with Tween-80) was 104 % of control, the T/C (dose: 25.0 mg/kg/injection, schedule: Q04DX002 (ip), vehicle: saline with Tween-80) was 104 % of control and the T/C [11] was 104 % of control.
With `COc1ccc(C(C)c2cc3c(cc2OCCO)OCO3)cc1O` (stereo unspecified) the T/C (dose: 50.0 mg/kg/injection, schedule: Q01DX005 (ip), vehicle: distilled water + Tween-80) was 97 % of control, the T/C (dose: 100.0 mg/kg/injection, schedule: Q01DX005 (ip), vehicle: distilled water + Tween-80) was 99 % of control and the T/C (dose: 200.0 mg/kg/injection, schedule: Q01DX005 (ip), vehicle: distilled water + Tween-80) was 98 % of control.
`CC(=O)OCC1OC(n2cnc3c(=S)nc(N)[nH]c32)C(OC(C)=O)C1OC(C)=O` (stereo unspecified) was tested, and the T/C (dose: 12.5 mg/kg/injection, schedule: Q04DX003 (ip), vehicle: saline with Tween-80) was 118 % of control, the T/C [7] was 122 % of control and the T/C [8] was 113 % of control. The T/C (dose: 300.0 mg/kg/injection, schedule: Q04DX003 (ip), vehicle: saline with Tween-80) was 100 % of control.
With `O=CNc1ccc(C(=O)O)c(O)c1` the T/C [9] was 98 % of control, the T/C [10] was 93 % of control and the T/C [14] was 90 % of control.
For `Nc1ccc2c(n1)NCC/C2=N\Nc1ccc(Br)cc1`, the T/C [8] was 103 % of control, the T/C (dose: 100.0 mg/kg/injection, schedule: Q01DX009 (ip), vehicle: saline with Tween-80) was 104 % of control and the T/C (dose: 200.0 mg/kg/injection, schedule: Q01DX009 (ip), vehicle: saline with Tween-80) was 106 % of control.
With `O=P(c1ccccc1)(c1ccccc1)c1ccccc1` (tested in a mixture with another compound) the T/C (dose: 25.0 mg/kg/injection, schedule: Q01DX009 (ip), vehicle: other) was 89 % of control.
`CC1(C)OC2(C)CCC1C1C2N1C(=O)c1ccc([N+](=O)[O-])cc1` (stereo unspecified) was tested, and the T/C [6] was 96 % of control, the T/C [12] was 102 % of control and the T/C [13] was 110 % of control.
